# According to ChEMBL document CHEMBL5252592, “Design, synthesis, and biological activity evaluation of novel tubulin polymerization inhibitors based on pyrimidine ring skeletons” (Bioorg Med Chem Lett, 2023):
# pIC50: −log10 of the molar value. Activity calls are given as the source filed them. No cut-off for these calls is given here.
# Tests used:
# [1] = system: HepG2; test: Induction of apoptosis in human HepG2 cells assessed as early apoptotic cells at 50 nM incubated for 48 hrs by AnnexinV-FITC/PI staining based flow cytometric analysis (reference value: 1.83%); assay type: functional
# [2] = system: HepG2; test: Induction of cell cycle arrest in human HepG2 cells assessed as decrease in S phase cells at 50 nM incubated for 24 hrs by PI staining based flow cytometric analysis (reference value: 12.75%); assay type: functional; design: scale not given: the % may be the effect or the level left
# [3] = system: HepG2; test: Induction of cell cycle arrest in human HepG2 cells assessed as increase in G2 phase cells at 200 nM incubated for 24 hrs by PI staining based flow cytometric analysis (reference value: 13.40%); assay type: functional
# [4] = system: HepG2; test: Induction of cell cycle arrest in human HepG2 cells assessed as decrease in G1 phase cells at 50 nM incubated for 24 hrs by PI staining based flow cytometric analysis (reference value: 73.85%); assay type: functional; design: scale not given: the % may be the effect or the level left
# [5] = system: A549; test: Antiproliferative activity against human A549 cells assessed as inhibition of cell growth; assay type: functional, cell-based
# [6] = system: HepG2; test: Induction of apoptosis in human HepG2 cells assessed as late apoptotic cells at 200 nM incubated for 48 hrs by AnnexinV-FITC/PI staining based flow cytometric analysis (reference value: 3.33%); assay type: functional
# [7] = system: HepG2; test: Induction of apoptosis in human HepG2 cells assessed as total apoptotic cells at 50 nM incubated for 48 hrs by AnnexinV-FITC/PI staining based flow cytometric analysis (reference value: 5.16%); assay type: functional
# [8] = system: HepG2; test: Induction of cell cycle arrest in human HepG2 cells assessed as decrease in G1 phase cells at 100 nM incubated for 24 hrs by PI staining based flow cytometric analysis (reference value: 73.85%); assay type: functional; design: scale not given: the % may be the effect or the level left
# [9] = system: Y79; test: Antiproliferative activity against human Y79 cells assessed as inhibition of cell growth; assay type: functional, cell-based
# [10] = system: HepG2; test: Antiinvasive activity in human HepG2 cells assessed as decrease in cells invading inferior chamber by transwell assay; assay type: functional, cell-based; details: dose 50-200 nM
# [11] = system: HepG2; test: Induction of cell cycle arrest in human HepG2 cells assessed as increase in G2 phase cells at 50 nM incubated for 24 hrs by PI staining based flow cytometric analysis (reference value: 13.40%); assay type: functional
# [12] = system: HepG2; test: Induction of apoptosis in human HepG2 cells assessed as early apoptotic cells at 100 nM incubated for 48 hrs by AnnexinV-FITC/PI staining based flow cytometric analysis (reference value: 1.83%); assay type: functional
# [13] = system: HepG2; test: Induction of apoptosis in human HepG2 cells assessed as viable cells at 100 nM incubated for 48 hrs by AnnexinV-FITC/PI staining based flow cytometric analysis (reference value: 92.0%); assay type: functional; details: read-out: Activity
# [14] = system: HepG2; test: Induction of apoptosis in human HepG2 cells assessed as viable cells at 50 nM incubated for 48 hrs by AnnexinV-FITC/PI staining based flow cytometric analysis (reference value: 92.0%); assay type: functional; details: read-out: Activity
# [15] = system: HepG2; test: Antimigratory activity in human HepG2 cells assessed as reduction in wound closure by scratch assay; assay type: functional, cell-based; details: dose 50-200 nM
# [16] = system: HepG2; test: Induction of apoptosis in human HepG2 cells assessed as total apoptotic cells at 100 nM incubated for 48 hrs by AnnexinV-FITC/PI staining based flow cytometric analysis (reference value: 5.16%); assay type: functional
# [17] = system: HepG2; test: Induction of apoptosis in human HepG2 cells assessed as necrotic cells at 200 nM incubated for 48 hrs by AnnexinV-FITC/PI staining based flow cytometric analysis (reference value: 2.82%); assay type: functional
# [18] = system: U-937; test: Antiproliferative activity against human U-937 cells assessed as inhibition of cell growth; assay type: functional, cell-based
# [19] = target: T1, Tubulin (Homo sapiens) (UniProt P68371+Q9H4B7+P0DPH7+P68366+Q13509+Q71U36+P04350+Q3ZCM7+P07437+P68363+Q9BQE3+Q6PEY2+Q13885+Q9BVA1+Q9BUF5); test: Disruption of microtubule organization in human HepG2 cells assessed as diffused intracellular microtubules at 50 to 200 nM by immunofluorescence staining based laser confocal microscopic analysis; assay type: cell-based; details: dose 50-200 nM
# [20] = target: T1, Tubulin (Homo sapiens); test: Disruption of microtubule organization in human HepG2 cells assessed as cell shrinkage at 50 to 200 nM by immunofluorescence staining based laser confocal microscopic analysis; details: dose 50-200 nM
# [21] = target: T1, Tubulin (Homo sapiens); test: Disruption of microtubule organization in human HepG2 cells assessed as round or polygonal shaped cells at 50 to 200 nM by immunofluorescence staining based laser confocal microscopic analysis; assay type: cell-based; details: dose 50-200 nM
# [22] = system: HepG2; test: Induction of apoptosis in human HepG2 cells assessed as late apoptotic cells at 50 nM incubated for 48 hrs by AnnexinV-FITC/PI staining based flow cytometric analysis (reference value: 3.33%); assay type: functional
# [23] = system: HepG2; test: Induction of apoptosis in human HepG2 cells assessed as total apoptotic cells at 200 nM incubated for 48 hrs by AnnexinV-FITC/PI staining based flow cytometric analysis (reference value: 5.16%); assay type: functional
# [24] = system: HepG2; test: Induction of apoptosis in human HepG2 cells assessed as viable cells at 200 nM incubated for 48 hrs by AnnexinV-FITC/PI staining based flow cytometric analysis (reference value: 92.0%); assay type: functional; details: read-out: Activity
# [25] = target: T1, Tubulin (Homo sapiens); test: Inhibition of tubulin polymerization (unknown origin) assessed as decrease in fluorescence intensity at 2 uM; assay type: protein-complex assay; details: time 1000-2000 min, TDE = time-dependent effect
# [26] = system: HepG2; test: Antiproliferative activity against human HepG2 cells assessed as inhibition of cell growth; assay type: functional, cell-based
# [27] = system: HepG2; test: Induction of apoptosis in human HepG2 cells assessed as early apoptotic cells at 200 nM incubated for 48 hrs by AnnexinV-FITC/PI staining based flow cytometric analysis (reference value: 1.83%); assay type: functional
# [28] = system: HepG2; test: Induction of cell cycle arrest in human HepG2 cells assessed as increase in G2 phase cells at 100 nM incubated for 24 hrs by PI staining based flow cytometric analysis (reference value: 13.40%); assay type: functional
# [29] = system: HepG2; test: Induction of G2/M phase cell cycle arrest in human HepG2 cells assessed as increase in P21 protein expression by Western blot analysis; assay type: functional, cell-based; details: dose 50-200 nM
# [30] = system: HepG2; test: Induction of cell cycle arrest in human HepG2 cells assessed as decrease in S phase cells at 200 nM incubated for 24 hrs by PI staining based flow cytometric analysis (reference value: 12.75%); assay type: functional; design: scale not given: the % may be the effect or the level left
# [31] = system: HepG2; test: Induction of apoptosis in human HepG2 cells assessed as necrotic cells at 50 nM incubated for 48 hrs by AnnexinV-FITC/PI staining based flow cytometric analysis (reference value: 2.82%); assay type: functional
# [32] = system: HepG2; test: Induction of cell cycle arrest in human HepG2 cells assessed as decrease in S phase cells at 100 nM incubated for 24 hrs by PI staining based flow cytometric analysis (reference value: 12.75%); assay type: functional; design: scale not given: the % may be the effect or the level left
# [33] = system: HepG2; test: Induction of apoptosis in human HepG2 cells assessed as necrotic cells at 100 nM incubated for 48 hrs by AnnexinV-FITC/PI staining based flow cytometric analysis (reference value: 2.82%); assay type: functional
# [34] = system: HepG2; test: Induction of G2/M phase cell cycle arrest in human HepG2 cells assessed as decrease in cyclinB1 protein expression by Western blot analysis; assay type: functional, cell-based; details: dose 50-200 nM
# [35] = system: HepG2; test: Induction of apoptosis in human HepG2 cells assessed as late apoptotic cells at 100 nM incubated for 48 hrs by AnnexinV-FITC/PI staining based flow cytometric analysis (reference value: 3.33%); assay type: functional
# [36] = system: HepG2; test: Induction of cell cycle arrest in human HepG2 cells assessed as decrease in G1 phase cells at 200 nM incubated for 24 hrs by PI staining based flow cytometric analysis (reference value: 73.85%); assay type: functional; design: scale not given: the % may be the effect or the level left
smiles,measurement,setting,value
COc1cc(Nc2nccc(-c3ccc4c(c3)OCCO4)n2)cc(OC)c1OC,Activity,[1],21.5%
same,Activity,[2],4.85%
same,Activity,[3],35.99%
same,Activity,[4],69.07%
same,pIC50,[5],6.10
same,Activity,[6],33.7%
same,Activity,[7],38.4%
same,Activity,[8],65.52%
same,pIC50,[9],7.00
same,Activity,[10],Dose-Dependent Effect
same,Activity,[11],26.08%
same,Activity,[12],17.9%
same,viability at 0.1 µM,[13],57.9%
same,viability at 0.05 µM,[14],61.5%
same,Activity,[15],Dose-Dependent Effect
same,Activity,[16],41.3%
same,Activity,[17],2.13%
same,pIC50,[18],7.15
same,Activity,[19],Active
same,Activity,[20],Active
same,Activity,[21],Active
same,Activity,[22],16.9%
same,Activity,[23],43.6%
same,viability at 0.2 µM,[24],63.3%
same,inhibition,[25],Tde
same,pIC50,[26],6.96
same,Activity,[27],10.9%
same,Activity,[28],27.53%
same,Activity,[29],Dose-Dependent Effect
same,Activity,[30],0.88%
same,Activity,[31],0.12%
same,Activity,[32],6.95%
same,Activity,[33],0.82%
same,Activity,[34],Dose-Dependent Effect
same,Activity,[35],23.4%
same,Activity,[36],63.13%
